Laboratory results published in patent publication US20250195461A1, “Fibrate Compositions for Treating Inflammation and Neuroinflammation” (TRx Biosciences Limited, priority 2022, published 2025).

Legend:
[1] = reported value; cited from earlier work
[2] = Miscibility / self-emulsification in dissolution media modelling ICH dissolution testing; type: physicochemical; details: 1 g of 100% or 75% preparation in 1 L PBS with […] curcumin, 37° C., 300 rpm 10 min, then 10 min without stirring
Protocol: To assess whether oleic acid could self-emulsify at the concentrations used in the disclosed pharmaceutical compositions, experiments was performed that were designed to model dissolution testing according to International Council for Harmonisation (ICH) guidelines. One liter of a dissolution media comprising phosphate buffered saline (PBS) and 2.5% curcumin was warmed to 37° C. and constant stirring at 300 rpm maintained. Curcumin was added as a coloring agent and was very effective at visualizing the distribution of lipids through the dissolution media. Miscibility experiments were performed using two concentrations of oleic acid nominally above the CMC concentration for this fatty acid. In one series of experiments, 1 g of 100% oleic acid was added to the dissolution media. The control compound was 1 g of 100% MAISINE™ CC. In a second series of experiments 1 g of 75% oleic acid (diluted with 250 mg of MAISINE™ CC) was added to the dissolution media. The control compound was 1 g of 75% MAISINE™ CC. The miscibility of oleic acid and MAISINE™ CC was assessed by observing the dissolution media for 10 minutes with constant stirring and then 10 minutes without stirring. Photographs were taken at time 0, 1, 2, 3, 4, 5 and 10 minutes during the stirring phase and 2, 4 and 10 minutes after stirring ceased.

[3] = cited from earlier work

| miscibility in dissolution media [2] | Compound | critical micellar concentration (CMC) [1] | log P [3] |
| --- | --- | --- | --- |
| not miscible | CCCCCCCC/C=C\CCCCCCCC(=O)O [oleic acid] | 2.3 mM |  |
|  | CCCCCCCCCCCCCCCCCC(=O)[O-].[Na+] [sodium stearate] | 0.071 mM |  |
|  | CC(C)(Oc1ccc(Cl)cc1)C(=O)OCCCOC(=O)c1cccnc1 [ronifibrate] |  | 3.9 |
|  | CC(C)(Oc1ccc(C2CC2(Cl)Cl)cc1)C(=O)O (centres unmarked) [ciprofibrate] |  | 3.6 |
|  | CC(C)(Oc1ccc(CCNC(=O)c2ccc(Cl)cc2)cc1)C(=O)O [bezafibrate] |  | 4.0 |
|  | CC(C)(Oc1ccc(Cl)cc1)C(=O)OCCCOC(=O)C(C)(C)Oc1ccc(Cl)cc1 [simfibrate] |  | 6.2 |
|  | Cc1ccc(C)c(OCCCC(C)(C)C(=O)O)c1 [gemfibrozil] |  | 4.4 |
|  | CC(C)(Oc1ccc(C2CCCc3ccccc32)cc1)C(=O)O (centres unmarked) [nafenopin] |  | 4.9 |
|  | CC(C)(Oc1ccc(C(=O)c2ccc(Cl)cc2)cc1)C(=O)O [fenofibric acid] |  | 4.4 |
|  | CC(C)(Oc1ccc(Cl)cc1)C(=O)OCCOC(=O)c1cccnc1 [etofibrate] |  | 3.5 |
|  | CCC(C)(Oc1ccc(C2(c3ccc(OC(C)(CC)C(=O)O)cc3)CCCCC2)cc1)C(=O)O (centres unmarked) [clinofibrate] |  | 7.5 |
|  | CN(C)C(=O)CCCOC(=O)C(C)(C)Oc1ccc(Cl)cc1 [clofibride] |  | 2.8 |
|  | CCOC(=O)C(C)(C)Oc1ccc(Cl)cc1 [clofibrate] |  | 3.4 |
